target: T1, human CB2R (Homo sapiens, UniProt P34972); assay: CB2R mediated modulation of cAMP synthesis; format: cell-based; details: found through the use of the above described assays (binding and cAMP); CHO cells expressing human CB2R, forskolin-stimulated cAMP
T1 construct: host or cells: CHO cells
Outline: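 CHO cells expressing human CB2R were treated for 30 min at 37 °C with compound in buffer containing 1 mM IBMX, 0.25% BSA and 10 uM forskolin. cAMP was measured after lysis. EC50 is the concentration giving 50% inhibition of forskolin-stimulated cAMP, scaled to the level set by 1 uM CP55940, fitted by four-parameter logistic.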

T1 sequence (P34972 whole entry): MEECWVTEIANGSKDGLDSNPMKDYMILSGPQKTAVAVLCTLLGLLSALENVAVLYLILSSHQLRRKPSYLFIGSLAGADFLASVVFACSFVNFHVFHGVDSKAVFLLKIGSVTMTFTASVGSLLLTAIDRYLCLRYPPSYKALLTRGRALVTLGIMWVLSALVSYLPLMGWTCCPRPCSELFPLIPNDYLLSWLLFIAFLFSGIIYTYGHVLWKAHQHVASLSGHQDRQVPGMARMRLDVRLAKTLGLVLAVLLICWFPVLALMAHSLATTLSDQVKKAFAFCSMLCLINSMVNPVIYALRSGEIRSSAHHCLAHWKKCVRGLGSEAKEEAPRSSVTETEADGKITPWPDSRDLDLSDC

SMILES | agonistic activity
CC(C)c1cc(NC(=O)C(C)(C)S(=O)(=O)c2ccc(C(F)(F)F)nc2)n(C)n1 [N-(3-isopropyl-1-methyl-1H-pyrazol-5-yl)-2-methyl-2-{[6-(trifluoromethyl)pyridin-3-yl]sulfonyl}propanamide] | agonistic activity
CCC(C)c1cc(NC(=O)C(C)(C)S(=O)(=O)c2ccc(Cl)cc2)on1 (stereo not shown) [N-(3-sec-Butyl-isoxazol-5-yl)-2-(4-chloro-benzenesulfonyl)-2-methyl-propionamide] | agonistic activity
CC(C)(C)c1cc(NC(=O)C(C)(C)S(=O)(=O)c2ccc(F)cc2F)on1 [N-(3-tert-Butyl-isoxazol-5-yl)-2-(2,4-difluoro-benzenesulfonyl)-2-methyl-propionamide] | agonistic activity
CC(C)(C)c1cc(NC(=O)C(C)(C)S(=O)(=O)c2cc(F)ccc2F)on1 [N-(3-tert-Butyl-isoxazol-5-yl)-2-(2,5-difluoro-benzenesulfonyl)-2-methyl-propionamide] | agonistic activity
Cc1ccc(S(=O)(=O)C(C)(C)C(=O)Nc2cc(C(C)(C)C)no2)cc1F [N-(3-tert-Butyl-isoxazol-5-yl)-2-(3-fluoro-4-methyl-benzenesulfonyl)-2-methyl-propionamide] | agonistic activity
CC(C)(C)c1cc(NC(=O)C(C)(C)S(=O)(=O)c2ccc(Cl)cc2F)on1 [N-(3-tert-Butyl-isoxazol-5-yl)-2-(4-chloro-2-fluoro-benzenesulfonyl)-2-methyl-propionamide] | agonistic activity
CC(C)(C)c1cc(NC(=O)C(C)(C)S(=O)(=O)c2ccc(Cl)cc2)on1 [N-(3-tert-Butyl-isoxazol-5-yl)-2-(4-chloro-benzenesulfonyl)-2-methyl-propionamide] | agonistic activity
CC(C)(C)c1cc(NC(=O)C(C)(C)S(=O)(=O)c2ccc(F)cc2)on1 [N-(3-tert-Butyl-isoxazol-5-yl)-2-(4-fluoro-benzenesulfonyl)-2-methyl-propionamide] | agonistic activity
COc1ccc(S(=O)(=O)C(C)(C)C(=O)Nc2cc(C(C)(C)C)no2)cc1 [N-(3-tert-Butyl-isoxazol-5-yl)-2-(4-methoxy-benzenesulfonyl)-2-methyl-propionamide] | agonistic activity
CC(C)(C)c1cc(NC(=O)C(C)(C)S(=O)(=O)c2ccc(C(F)(F)F)cc2)on1 [N-(3-tert-Butyl-isoxazol-5-yl)-2-methyl-2-(4-trifluoromethyl-benzenesulfonyl)-propionamide] | agonistic activity
Cc1ccc(S(=O)(=O)C(C)(C)C(=O)Nc2cc(C(C)(C)C)no2)cc1 [N-(3-tert-Butyl-isoxazol-5-yl)-2-methyl-2-(toluene-4-sulfonyl)-propionamide] | agonistic activity
CC(C)(C)c1cccc(NC(=O)C(C)(C)S(=O)(=O)c2ccc(Cl)cc2)c1 [N-(3-tert-Butyl-phenyl)-2-(4-chloro-benzenesulfonyl)-2-methyl-propionamide] | agonistic activity
Cn1nc(C(C)(C)C)cc1NC(=O)C(C)(C)S(=O)(=O)c1ccc(S(C)(=O)=O)cc1 [N-(3-tert-butyl-1-methyl-1H-pyrazol-5-yl)-2-methyl-2-{[4-(methylsulfonyl)phenyl]sulfonyl}propanamide] | agonistic activity
CC(C)(C)c1cc(NC(=O)C(C)(C)S(=O)(=O)c2ccc(C(F)(F)F)nc2)on1 [N-(3-tert-butylisoxazol-5-yl)-2-methyl-2-{[6-(trifluoromethyl)pyridin-3-yl]sulfonyl}propanamide] | agonistic activity
CC(C)(C)c1cccc(NC(=O)C(C)(C)S(=O)(=O)c2ccc(Cl)cc2F)c1 [N-(3-tert-butylphenyl)-2-[(4-chloro-2-fluorophenyl)sulfonyl]-2-methylpropanamide] | agonistic activity
CC(C)(C)c1cccc(NC(=O)C(C)(C)S(=O)(=O)c2ccc(C(F)(F)F)nc2)c1 [N-(3-tert-butylphenyl)-2-methyl-2-{[6-(trifluoromethyl)pyridin-3-yl]sulfonyl}propanamide] | agonistic activity
COc1ccc(S(=O)(=O)C(C)(C)C(=O)Nc2nc(C3CCCCC3)cs2)cc1 [N-(4-cyclohexyl-1,3-thiazol-2-yl)-2-[(4-methoxyphenyl)sulfonyl]-2-methylpropanamide] | agonistic activity
CC(C)(C(=O)Nc1nc(C2CCCCC2)cs1)S(=O)(=O)c1ccc(S(C)(=O)=O)cc1 [N-(4-cyclohexyl-1,3-thiazol-2-yl)-2-methyl-2-{[4-(methylsulfonyl)phenyl]sulfonyl}propanamide] | agonistic activity
CC(C)(C(=O)Nc1nc(C2CC2)cs1)S(=O)(=O)c1ccc(S(C)(=O)=O)cc1 [N-(4-cyclopropyl-1,3-thiazol-2-yl)-2-methyl-2-{[4-(methylsulfonyl)phenyl]sulfonyl}propanamide] | agonistic activity
CCc1ccnc(NC(=O)C(C)(C)S(=O)(=O)c2ccc(S(C)(=O)=O)cc2)c1 [N-(4-ethylpyridin-2-yl)-2-methyl-2-{[4-(methylsulfonyl)phenyl]sulfonyl}propanamide] | agonistic activity
CCc1ccnc(NC(=O)C(C)(C)S(=O)(=O)c2ccc(C(F)(F)F)nc2)c1 [N-(4-ethylpyridin-2-yl)-2-methyl-2-{[6-(trifluoromethyl)pyridin-3-yl]sulfonyl}propanamide] | agonistic activity
Cc1sc(NC(=O)C(C)(C)S(=O)(=O)c2ccc(Cl)cc2)nc1C(C)(C)C [N-(4-tert-Butyl-5-methyl-thiazol-2-yl)-2-(4-chloro-benzenesulfonyl)-2-methyl-propionamide] | agonistic activity
CC(C)(C)c1coc(NC(=O)C(C)(C)S(=O)(=O)c2ccc(Cl)cc2)n1 [N-(4-tert-Butyl-oxazol-2-yl)-2-(4-chloro-benzenesulfonyl)-2-methyl-propionamide] | agonistic activity
CC(C)(C)c1ccc(NC(=O)C(C)(C)S(=O)(=O)c2ccc(Cl)cc2)cc1 [N-(4-tert-Butyl-phenyl)-2-(4-chloro-benzenesulfonyl)-2-methyl-propionamide] | agonistic activity
CC(C)(C)c1csc(NC(=O)C(C)(C)S(=O)(=O)c2ccc(Cl)cc2Cl)n1 [N-(4-tert-Butyl-thiazol-2-yl)-2-(2,4-dichloro-benzenesulfonyl)-2-methyl-propionamide] | agonistic activity
CC(C)(C)c1csc(NC(=O)C(C)(C)S(=O)(=O)c2cc(F)ccc2F)n1 [N-(4-tert-Butyl-thiazol-2-yl)-2-(2,5-difluoro-benzenesulfonyl)-2-methyl-propionamide] | agonistic activity
CC(C)(C)c1csc(NC(=O)C(C)(C)S(=O)(=O)c2ccc(Cl)c(Cl)c2)n1 [N-(4-tert-Butyl-thiazol-2-yl)-2-(3,4-dichloro-benzenesulfonyl)-2-methyl-propionamide] | agonistic activity
CC(C)(C)c1csc(NC(=O)C(C)(C)S(=O)(=O)c2ccc(Cl)cc2F)n1 [N-(4-tert-Butyl-thiazol-2-yl)-2-(4-chloro-2-fluoro-benzenesulfonyl)-2-methyl-propionamide] | agonistic activity
